Results reported in US20210198277A1, “AMINE-SUBSTITUTED ARYL OR HETEROARYL COMPOUNDS” (Epizyme, Inc., priority 2016, published 2021).

Target: T1, EHMT2 (Homo sapiens, UniProt Q96KQ7)
T1 construct: host or cells: MDA-MB-231
T1 sequence (Q96KQ7 1-1210): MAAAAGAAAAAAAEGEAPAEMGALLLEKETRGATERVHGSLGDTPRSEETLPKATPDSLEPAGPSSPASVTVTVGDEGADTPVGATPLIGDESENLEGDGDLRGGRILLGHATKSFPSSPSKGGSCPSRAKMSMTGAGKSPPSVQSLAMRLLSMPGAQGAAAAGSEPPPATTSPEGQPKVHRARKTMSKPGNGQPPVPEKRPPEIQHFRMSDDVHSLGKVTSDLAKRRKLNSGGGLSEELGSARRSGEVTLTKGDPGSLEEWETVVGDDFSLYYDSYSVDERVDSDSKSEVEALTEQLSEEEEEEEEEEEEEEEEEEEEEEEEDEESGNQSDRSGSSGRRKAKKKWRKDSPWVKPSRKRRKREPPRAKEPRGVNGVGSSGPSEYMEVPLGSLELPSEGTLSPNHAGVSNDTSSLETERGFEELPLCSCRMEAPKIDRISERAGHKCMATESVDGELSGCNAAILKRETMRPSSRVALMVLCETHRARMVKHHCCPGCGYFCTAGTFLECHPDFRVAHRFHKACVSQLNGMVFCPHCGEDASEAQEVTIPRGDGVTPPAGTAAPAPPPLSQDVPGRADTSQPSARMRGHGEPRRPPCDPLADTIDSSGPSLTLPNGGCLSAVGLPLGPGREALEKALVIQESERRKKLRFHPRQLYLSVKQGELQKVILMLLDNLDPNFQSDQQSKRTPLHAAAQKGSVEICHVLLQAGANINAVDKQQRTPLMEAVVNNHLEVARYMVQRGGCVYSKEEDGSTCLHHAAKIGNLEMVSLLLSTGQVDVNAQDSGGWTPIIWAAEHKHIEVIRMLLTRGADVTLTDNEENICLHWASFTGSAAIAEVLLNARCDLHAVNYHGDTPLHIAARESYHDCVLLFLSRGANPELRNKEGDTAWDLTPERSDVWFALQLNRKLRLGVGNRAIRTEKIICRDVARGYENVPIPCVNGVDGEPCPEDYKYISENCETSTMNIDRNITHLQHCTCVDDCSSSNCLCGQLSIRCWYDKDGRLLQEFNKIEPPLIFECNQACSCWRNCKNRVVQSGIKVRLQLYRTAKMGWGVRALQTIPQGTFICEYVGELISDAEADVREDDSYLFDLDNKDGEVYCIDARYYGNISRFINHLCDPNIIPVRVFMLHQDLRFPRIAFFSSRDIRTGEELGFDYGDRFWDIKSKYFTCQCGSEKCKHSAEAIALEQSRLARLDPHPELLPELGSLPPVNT
Test: MDA-MB-231 H3K9me2 in-cell Western assay (EHMT2 ICW)
Assay type: cell-based
Details: Table II; MDA-MB-231 H3K9me2 in-cell Western; read-out: EHMT2 ICW (IC50 μM)
Method in brief: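 MDA-MB-231 cells (3,000/well) were exposed to compound for 30 min at room temperature and then 48 h at 37 °C, fixed with paraformaldehyde, and stained with anti-H3K9me2 (800 nm) plus DRAQ5 (700 nm). Per-well channel ratios gave percent inhibition, and IC50 came from a four-parameter fit of triplicate wells.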

IC50 | SMILES
< 0.1 µM | CNc1ccnc(Nc2ccc(OC)c(OCCCN3CCCC3)c2)n1 [Compound 1, N^2-(4-methoxy-3-(3-(pyrrolidin-1-yl)propoxy)phenyl)-N^4-methylpyrimidine-2,4-diamine]
0.1 to 1 µM | COc1ccc(Nc2nccc(NCC3CCN(CC(F)F)CC3)n2)cc1OCCCN1CCCC1 [Compound 2, N^4-((1-(2,2-difluoroethyl)piperidin-4-yl)methyl)-N^2-(4-methoxy-3-(3-(pyrrolidin-1-yl)propoxy)phenyl)pyrimidine-2,4-diamine]
0.1 to 1 µM | COc1ccc(Nc2nccc(NCC3CCOCC3)n2)cc1OCCCN1CCCC1 [Compound 3, N^2-(4-methoxy-3-(3-(pyrrolidin-1-yl)propoxy)phenyl)-N^4-((tetrahydro-2H-pyran-4-yl)methyl)pyrimidine-2,4-diamine]
0.1 to 1 µM | COc1ccc(Nc2nccc(NCC3CCN(CC(F)(F)F)CC3)n2)cc1OCCCN1CCCC1 [Compound 4, N^2-(4-methoxy-3-(3-(pyrrolidin-1-yl)propoxy)phenyl)-N^4-((1-(2,2,2-trifluoroethyl)piperidin-4-yl)methyl)pyrimidine-2,4-diamine]
0.1 to 1 µM | COc1ccc(Nc2nccc(NC3CCOCC3)n2)cc1OCCCN1CCCC1 [Compound 5, N^2-(4-methoxy-3-(3-(pyrrolidin-1-yl)propoxy)phenyl)-N^4-(tetrahydro-2H-pyran-4-yl)pyrimidine-2,4-diamine]
1 to 10 µM | COc1ccc(Nc2nccc(NCC(=O)N3CCOCC3)n2)cc1OCCCN1CCCC1 [Compound 51]
1 to 10 µM | COc1ccc(Nc2nccc(NCC(=O)N(C)c3ccccc3)n2)cc1OCCCN1CCCC1 [Compound 52]
1 to 10 µM | COc1ccc(Nc2nccc(N3Cc4cn[nH]c4C3)n2)cc1OCCCN1CCCC1 [Compound 53]
1 to 10 µM | COc1ccc(Nc2nccc(NC3CCN(C(C)=O)CC3)n2)cc1OCCCN1CCCC1 [Compound 54]
1 to 10 µM | COc1ccc(Nc2ncc(C)c(NCC3CCN(C(C)=O)CC3)n2)cc1OCCCN1CCCC1 [Compound 55]
1 to 10 µM | COc1ccc(Nc2nccc(N(C)Cc3ccncc3)n2)cc1OCCCN1CCCC1 [Compound 56]
1 to 10 µM | COc1ccc(Nc2nccc(NCC3CCN(C(C)=O)CC3)n2)cc1COCCN1CC(F)C1 [Compound 57]
1 to 10 µM | c1cc(Nc2nccc(NCC3CCNCC3)n2)cc(OCCCN2CCCC2)c1 [Compound 88]
> 10 µM | COc1ccc(Nc2nccc(NCC3CCNCC3)n2)cc1OCCCN1CCCC1 [Compound 90]

Same assay, conditions: Table III; MDA-MB-231 H3K9me2 in-cell Western; read-out: EHMT2 ICW (IC50 μM)

IC50 | SMILES
1 to 10 µM | CNc1ccnc(Nc2ccc(OC)c(OC[C@H](O)CN3CCCC3)c2)n1 (single isomer, unassigned) [Compound 376]
> 10 µM | CNc1ccnc(Nc2ccc(OC)c(OC[C@@H](O)CN3CCCC3)c2)n1 (single isomer, unassigned) [Compound 377]
1 to 10 µM | CNc1ccnc(Nc2ccc(OC)c(OCC3CCN(C)C3)c2)n1 (single isomer, unassigned) [Compound 415]
0.1 to 1 µM | CNc1ccnc(Nc2ccc(OC)c(OCC3CCN(C)C3)c2)n1 (single isomer, unassigned) [Compound 416]
1 to 10 µM | CNc1cc(C)nc(Nc2ccc(OC)c(OCC3CCN(C)C3)c2)n1 (single isomer, unassigned) [Compound 417]
< 0.1 µM | CNc1cc(C)nc(Nc2ccc(OC)c(OCC3CCN(C)C3)c2)n1 (single isomer, unassigned) [Compound 418]
> 10 µM | CNc1cc(OC)nc(Nc2ccc(OC)c(OCCCN3CCCC3)c2)n1 [Compound 261, 6-methoxy-N^2-(4-methoxy-3-(3-(pyrrolidin-1-yl)propoxy)phenyl)-N^4-methylpyrimidine-2,4-diamine]
> 10 µM | CNc1ccnc(Nc2ccc3c(c2)C(=O)N(CCN2CCCC2)CC3)n1 [Compound 264, 7-((4-(methylamino)pyrimidin-2-yl)amino)-2-(2-(pyrrolidin-1-yl)ethyl)-3,4-dihydroisoquinolin-1(2H)-one]
